Results from US8618289B2 (Ambit Biosciences Corporation, priority 2008, dated 2013).
Read-outs that look alike come from different tables or passages of the source.

Experiments:
[1] = test system: A375 cells; test: cells; settings: Homo sapiens, A-375, read-out: A375 Viability EC50
[2] = test system: MEK1 phosphorylation in the A375 human melanoma cell line; test: cells; settings: A-375, read-out: pMEK IC50
[3] = target: T1, RAF kinases (Homo sapiens, UniProt P04049); test: biochemical
Protocol: (§1) Competition binding assays used herein were developed, validated and performed as described in Fabian et al., Nature Biotechnology 2005, 23, 329-336. […] The liganded beads were blocked with excess biotin and washed with blocking buffer (SeaBlock (Pierce), 1% BSA, 0.05% Tween 20, 1 mM DTT) to remove unbound ligand and to reduce non-specific binding. […] Test compounds were prepared as 100× stocks in DMSO and rapidly diluted into the aqueous environment. DMSO was added to control assays lacking a test compound. Primary screen interactions were performed in polypropylene 384-well plates in a final volume of 34 μt, while Kd determinations were performed in polystyrene 96-well plates in a final volume of 135 pt. […] The kinase concentration in the eluates was measured by quantitative PCR. Each kinase was tested individually against each compound. Kds were determined using eleven serial threefold dilutions. A selectivity score, which is a quantitative measure of selectivity of a compound against a panel of enzymes, may be calculated for a compound by dividing the number of enzymes for which a compound meets a set criteria, (for example, a binding constant of 100 nM or less), by the total number of enzymes tested. […] (Note, for those compounds tested in a larger kinase panel, as indicated by an asterisk (*) next to the S35 score, the divisor is 321 (i.e. the larger panel contains 321 distinct kinases, excluding mutant variants.)).

[4] = target: T2, RAF kinases (Homo sapiens, UniProt P15056, V600E); test: biochemical
Protocol: as §1

[5] = target: T3, RAF kinases (Homo sapiens, UniProt P15056); test: biochemical
Protocol: as §1

[6] = test system: 290 distinct kinases tested excluding mutant variants (321 in the larger panel)
Protocol: as §1

[7] = target: T3, RAF kinases; settings: read-out: BRAF WT Kd; BRAF WT
Protocol: as §1

[8] = target: T1, RAF kinases; settings: read-out: RAF1 Kd; RAF1
Protocol: as §1

[9] = target: T2, RAF kinases; settings: read-out: BRAF V600E Kd; BRAF V600E
Protocol: as §1

[10] = no asterisk: panel of 290 distinct kinases

T1 sequence (P04049 whole entry): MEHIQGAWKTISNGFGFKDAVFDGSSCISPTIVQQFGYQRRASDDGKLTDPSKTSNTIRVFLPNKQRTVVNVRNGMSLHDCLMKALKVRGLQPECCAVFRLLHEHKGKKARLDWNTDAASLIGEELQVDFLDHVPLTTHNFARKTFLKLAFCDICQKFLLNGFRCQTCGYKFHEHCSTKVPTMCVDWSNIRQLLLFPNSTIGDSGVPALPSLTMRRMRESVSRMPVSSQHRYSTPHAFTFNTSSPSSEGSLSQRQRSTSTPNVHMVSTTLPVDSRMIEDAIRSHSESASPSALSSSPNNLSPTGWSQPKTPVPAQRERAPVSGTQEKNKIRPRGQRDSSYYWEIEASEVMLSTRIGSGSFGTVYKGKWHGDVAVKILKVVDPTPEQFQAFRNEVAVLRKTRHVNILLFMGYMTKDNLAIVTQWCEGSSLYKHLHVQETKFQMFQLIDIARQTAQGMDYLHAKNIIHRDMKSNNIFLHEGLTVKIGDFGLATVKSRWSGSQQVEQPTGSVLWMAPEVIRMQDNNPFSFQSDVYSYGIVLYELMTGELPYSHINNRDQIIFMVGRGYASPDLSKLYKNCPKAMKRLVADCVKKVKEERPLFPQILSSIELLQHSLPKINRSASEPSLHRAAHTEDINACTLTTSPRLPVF
T3 sequence (P15056 whole entry): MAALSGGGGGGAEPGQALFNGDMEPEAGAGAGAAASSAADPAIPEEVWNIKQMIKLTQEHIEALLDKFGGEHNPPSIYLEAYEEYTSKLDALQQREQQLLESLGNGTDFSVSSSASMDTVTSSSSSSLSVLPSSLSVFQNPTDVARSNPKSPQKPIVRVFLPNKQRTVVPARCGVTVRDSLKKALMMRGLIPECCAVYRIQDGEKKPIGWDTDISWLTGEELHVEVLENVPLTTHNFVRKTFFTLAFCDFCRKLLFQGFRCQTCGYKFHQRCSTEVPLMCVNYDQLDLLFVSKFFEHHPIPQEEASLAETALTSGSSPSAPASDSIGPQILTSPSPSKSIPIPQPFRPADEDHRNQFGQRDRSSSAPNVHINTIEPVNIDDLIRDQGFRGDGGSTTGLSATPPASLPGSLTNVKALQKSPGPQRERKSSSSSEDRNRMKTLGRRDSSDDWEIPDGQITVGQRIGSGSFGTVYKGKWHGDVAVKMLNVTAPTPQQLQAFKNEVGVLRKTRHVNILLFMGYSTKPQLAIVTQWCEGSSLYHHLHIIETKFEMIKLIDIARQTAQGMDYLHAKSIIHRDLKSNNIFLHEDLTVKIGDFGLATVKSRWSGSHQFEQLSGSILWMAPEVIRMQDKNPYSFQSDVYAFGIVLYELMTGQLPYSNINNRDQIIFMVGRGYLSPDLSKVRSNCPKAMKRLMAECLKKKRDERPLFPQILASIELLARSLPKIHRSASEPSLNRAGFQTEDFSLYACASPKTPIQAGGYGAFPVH
T2 sequence (P15056 whole entry V600E): as the sequence (P15056 whole entry) above, with V600E counted along it

COc1cc2c(Sc3cccc(NC(=O)Nc4cc(C(C)(C)C)on4)c3)ncnc2cc1OCCN1CCN(CCO)CC1 [Ex 84, 1-(5-tert-butylisoxazol-3-yl)-3-(3-(7-(2-(4-(2-hydroxyethyl)piperazin-1-yl)ethoxy)-6-methoxyquinazolin-4-ylthio)phenyl)urea]
EC50 [1]: > 1 µM | IC50 [2]: < 0.25 µM | Kd [3]: 0.25 to 0.5 µM | Kd [4]: < 0.25 µM | Kd [5]: 0.25 to 0.5 µM | S35 [6, 10]: D (D > 0.40)

COc1cc2ncnc(Sc3cccc(NC(=O)Nc4cc(C(F)(F)F)nn4-c4ccc(C)cc4)c3)c2cc1OC [Ex 199, 1-[3-(6,7-dimethoxyquinazolin-4-ylthio)phenyl]-3-[1-p-tolyl-3-(trifluoromethyl)-1H-pyrazol-5-yl]urea]
EC50 [1]: > 1 µM | IC50 [2]: < 0.25 µM | Kd [3]: > 1 µM | Kd [4]: > 1 µM | Kd [5]: > 1 µM | S35 ([6]; asterisk: panel of 321 distinct kinases): D* (D > 0.40)

COc1cc2ncnc(Oc3cccc(NC(=O)Nc4cc(C(C)(C)CO)no4)c3)c2cc1OC [Ex 255, 1-(3-(6,7-dimethoxyquinazolin-4-yloxy)phenyl)-3-(3-(1-hydroxy-2-methylpropan-2-yl)isoxazol-5-yl)urea]
EC50 [1]: > 1 µM | IC50 [2]: > 1 µM | Kd [3]: 0.25 to 0.5 µM | Kd [4]: < 0.25 µM | Kd [5]: 0.25 to 0.5 µM | S35 [6, 10]: C (0.20 < C ≦ 0.40)

COc1cc2nc(Cl)nc(Oc3cccc(NC(=O)Nc4cc(C(C)(C)C)on4)c3)c2cc1OC [Ex 310, 1-(5-tert-butylisoxazol-3-yl)-3-(3-(2-chloro-6,7-dimethoxyquinazolin-4-yloxy)phenyl)urea]
EC50 [1]: > 1 µM | IC50 [2]: > 1 µM | Kd [7]: > 1 µM | Kd [3]: 0.5 to 1 µM | Kd [4]: 0.5 to 1 µM | S35 [6, 10]: A (A ≦ 0.10)

COc1cc2ncnc(Oc3cccc(NC(=O)Nc4cc(C(C)(F)F)nn4-c4cccnc4)c3)c2cc1OC [Ex 311, 1-(3-(1,1-difluoroethyl)-1-(pyridin-3-yl)-1H-pyrazol-5-yl)-3-(3-(6,7-dimethoxyquinazolin-4-yloxy)phenyl)urea]
EC50 [1]: 0.25 to 0.5 µM | IC50 [2]: 0.25 to 0.5 µM | Kd [8]: < 0.25 µM | Kd [9]: < 0.25 µM | Kd [7]: < 0.25 µM | S35 [6, 10]: C (0.20 < C ≦ 0.40)

COc1ccc(-n2nc(C(C)(F)F)cc2NC(=O)Nc2cccc(Oc3ncnc4cc(OC)c(OC)cc34)c2)cc1 [Ex 315, 1-(3-(1,1-difluoroethyl)-1-(4-methoxyphenyl)-1H-pyrazol-5-yl)-3-(3-(6,7-dimethoxyquinazolin-4-yloxy)phenyl)urea]
EC50 [1]: < 0.25 µM | IC50 [2]: < 0.25 µM | Kd [9]: < 0.25 µM | Kd [7]: > 1 µM | Kd [3]: 0.5 to 1 µM | S35 [6, 10]: D (D > 0.40)

COc1cc2ncnc(Oc3cccc(NC(=O)Nc4cc(C(C)(F)F)nn4-c4cncc(F)c4)c3)c2cc1OC [Ex 316, 1-(3-(1,1-difluoroethyl)-1-(5-fluoropyridin-3-yl)-1H-pyrazol-5-yl)-3-(3-(6,7-dimethoxyquinazolin-4-yloxy)phenyl)urea]
EC50 [1]: 0.5 to 1 µM | IC50 [2]: 0.25 to 0.5 µM | Kd [8]: < 0.25 µM | Kd [9]: < 0.25 µM | Kd [5]: 0.25 to 0.5 µM | S35 [6, 10]: C (0.20 < C ≦ 0.40)

COc1cc2ncnc(Oc3cccc(NC(=O)Nc4cc(C(C)(C)C)nn4-c4ccc(=O)[nH]c4)c3)c2cc1OC [Ex 317, 1-(3-tert-butyl-1-(6-oxo-1,6-dihydropyridin-3-yl)-1H-pyrazol-5-yl)-3-(3-(6,7-dimethoxyquinazolin-4-yloxy)phenyl)urea]
EC50 [1]: > 1 µM | IC50 [2]: > 1 µM | Kd [9]: < 0.25 µM | Kd [7]: > 1 µM | Kd [3]: 0.5 to 1 µM | S35 [6, 10]: D (D > 0.40)

COc1cc2ncnc(Oc3cccc(NC(=O)Nc4cc(C(C)(C)C)nn4-c4ccnc(C)c4)c3)c2cc1OC [Ex 320, 1-(3-tert-butyl-1-(2-methylpyridin-4-yl)-1H-pyrazol-5-yl)-3-(3-(6,7-dimethoxyquinazolin-4-yloxy)phenyl)urea]
IC50 [2]: < 0.25 µM | Kd [8]: > 1 µM | Kd [9]: < 0.25 µM | Kd [7]: > 1 µM | S35 [6, 10]: D (D > 0.40)

CCn1nc(C(C)(C)C)cc1NC(=O)Nc1cccc(Sc2ncnc3cc(OC)c(OC)cc23)c1 [Ex 321, 1-(3-tert-butyl-1-ethyl-1H-pyrazol-5-yl)-3-(3-(6,7-dimethoxyquinazolin-4-ylthio)phenyl)urea]
EC50 [1]: 0.5 to 1 µM | IC50 [2]: 0.25 to 0.5 µM | Kd [8]: < 0.25 µM | Kd [9]: < 0.25 µM | Kd [5]: 0.25 to 0.5 µM | S35 [6, 10]: C (0.20 < C ≦ 0.40)

COc1cc2ncnc(Sc3cccc(NC(=O)Nc4cc(C(C)(C)C)nn4-c4ccc(C#N)cc4)c3)c2cc1OC [Ex 329, 1-(3-tert-butyl-1-(4-cyanophenyl)-1H-pyrazol-5-yl)-3-(3-(6,7-dimethoxyquinazolin-4-ylthio)phenyl)urea]
IC50 [2]: < 0.25 µM | Kd [3]: 0.5 to 1 µM | Kd [4]: 0.25 to 0.5 µM | Kd [5]: 0.25 to 0.5 µM | S35 [6, 10]: D (D > 0.40)

COc1cc2ncnc(Oc3cccc(NC(=O)Nc4cc(C(C)(C)C)nn4C4CCCCC4)c3)c2cc1OC [Ex 330, 1-(3-tert-butyl-1-cyclohexyl-1H-pyrazol-5-yl)-3-(3-(6,7-dimethoxyquinazolin-4-yloxy)phenyl)urea]
EC50 [1]: > 1 µM | IC50 [2]: > 1 µM | Kd [8]: > 1 µM | Kd [9]: < 0.25 µM | Kd [7]: > 1 µM | S35 [6, 10]: C (0.20 < C ≦ 0.40)

COc1cc2ncnc(Sc3cccc(NC(=O)Nc4cc(C(C)(C)C)nn4C4CCCCC4)c3)c2cc1OC [Ex 331, 1-(3-tert-butyl-1-cyclohexyl-1H-pyrazol-5-yl)-3-(3-(6,7-dimethoxyquinazolin-4-ylthio)phenyl)urea]
EC50 [1]: > 1 µM | IC50 [2]: < 0.25 µM | Kd [3]: 0.5 to 1 µM | Kd [4]: 0.25 to 0.5 µM | Kd [5]: 0.5 to 1 µM | S35 [6, 10]: B (0.10 < B ≦ 0.20)

COc1cc2ncnc(Sc3cccc(NC(=O)Nc4cc(C(F)(F)F)nn4-c4cccc(C)c4)c3)c2cc1OC [Ex 339, 1-(3-(6,7-dimethoxyquinazolin-4-ylthio)phenyl)-3-(1-m-tolyl-3-(trifluoromethyl)-1H-pyrazol-5-yl)urea]
IC50 [2]: < 0.25 µM | Kd [3]: 0.5 to 1 µM | Kd [4]: 0.25 to 0.5 µM | Kd [5]: > 1 µM | S35 [6, 10]: C (0.20 < C ≦ 0.40)

COc1cc2ncnc(Sc3cccc(NC(=O)Nc4cc(C(C)(C)C)nn4-c4ccccn4)c3)c2cc1OC [Ex 345, 1-(3-tert-butyl-1-(pyridin-2-yl)-1H-pyrazol-5-yl)-3-(3-(6,7-dimethoxyquinazolin-4-ylthio)phenyl)urea]
EC50 [1]: > 1 µM | IC50 [2]: 0.5 to 1 µM | Kd [8]: > 1 µM | Kd [9]: > 1 µM | Kd [7]: > 1 µM | S35 [6, 10]: B (0.10 < B ≦ 0.20)

COc1cc2ncnc(Oc3cccc(NC(=O)Nc4cc(C5(C(F)(F)F)CC5)nn4-c4ccc(C)cc4)c3)c2cc1OC [Ex 346, 1-(3-(6,7-dimethoxyquinazolin-4-yloxy)phenyl)-3-(1-p-tolyl-3-(1-(trifluoromethyl)cyclopropyl)-1H-pyrazol-5-yl)urea]
IC50 [2]: < 0.25 µM | Kd [3]: > 1 µM | Kd [4]: < 0.25 µM | Kd [5]: > 1 µM | S35 [6, 10]: D (D > 0.40)

COc1ccc(-n2nc(C(C)C)cc2NC(=O)Nc2cccc(Oc3ncnc4cc(OC)c(OC)cc34)c2)cc1 [Ex 348, 1-(3-(6,7-dimethoxyquinazolin-4-yloxy)phenyl)-3-(3-isopropyl-1-(4-methoxyphenyl)-1H-pyrazol-5-yl)urea]
EC50 [1]: < 0.25 µM | IC50 [2]: < 0.25 µM | Kd [9]: < 0.25 µM | Kd [7]: > 1 µM | Kd [3]: 0.5 to 1 µM | S35 [6, 10]: D (D > 0.40)

COc1ccc(-n2nc(C(C)C)cc2NC(=O)Nc2cccc(Sc3ncnc4cc(OC)c(OC)cc34)c2)cc1 [Ex 349, 1-(3-(6,7-dimethoxyquinazolin-4-ylthio)phenyl)-3-(3-isopropyl-1-(4-methoxyphenyl)-1H-pyrazol-5-yl)urea]
EC50 [1]: < 0.25 µM | IC50 [2]: < 0.25 µM | Kd [9]: < 0.25 µM | Kd [7]: > 1 µM | Kd [3]: 0.5 to 1 µM | S35 [6, 10]: C (0.20 < C ≦ 0.40)

COc1cc2ncnc(Oc3cccc(NC(=O)Nc4cc(C(C)C)nn4-c4cccnc4)c3)c2cc1OC [Ex 350, 1-(3-(6,7-dimethoxyquinazolin-4-yloxy)phenyl)-3-(3-isopropyl-1-(pyridin-3-yl)-1H-pyrazol-5-yl)urea]
EC50 [1]: 0.25 to 0.5 µM | IC50 [2]: 0.25 to 0.5 µM | Kd [8]: < 0.25 µM | Kd [9]: < 0.25 µM | Kd [7]: < 0.25 µM | S35 [6, 10]: D (D > 0.40)

COc1cc2ncnc(Sc3cccc(NC(=O)Nc4cc(C(C)C)nn4-c4cccnc4)c3)c2cc1OC [Ex 351, 1-(3-(6,7-dimethoxyquinazolin-4-ylthio)phenyl)-3-(3-isopropyl-1-(pyridin-3-yl)-1H-pyrazol-5-yl)urea]
EC50 [1]: 0.25 to 0.5 µM | IC50 [2]: < 0.25 µM | Kd [8]: < 0.25 µM | Kd [9]: < 0.25 µM | Kd [5]: 0.5 to 1 µM | S35 [6, 10]: C (0.20 < C ≦ 0.40)

CCc1cc(NC(=O)Nc2cccc(Oc3ncnc4cc(OC)c(OC)cc34)c2)n(-c2ccccc2)n1 [Ex 352, 1-(3-(6,7-dimethoxyquinazolin-4-yloxy)phenyl)-3-(3-ethyl-1-phenyl-1H-pyrazol-5-yl)urea]
EC50 [1]: 0.25 to 0.5 µM | IC50 [2]: 0.5 to 1 µM | Kd [8]: < 0.25 µM | Kd [9]: < 0.25 µM | Kd [7]: < 0.25 µM | S35 [6, 10]: C (0.20 < C ≦ 0.40)

COc1cc2ncnc(Oc3cccc(NC(=O)Nc4cc(C5CC5)nn4-c4ccccc4)c3)c2cc1OC [Ex 353, 1-(3-cyclopropyl-1-phenyl-1H-pyrazol-5-yl)-3-(3-(6,7-dimethoxyquinazolin-4-yloxy)phenyl)urea]
EC50 [1]: 0.25 to 0.5 µM | IC50 [2]: 0.25 to 0.5 µM | Kd [8]: < 0.25 µM | Kd [9]: < 0.25 µM | Kd [5]: 0.25 to 0.5 µM | S35 [6, 10]: C (0.20 < C ≦ 0.40)
